Measurements as given in ChEMBL document CHEMBL1146960, “Synthesis and anticancer activity of thiosemicarbazones” (Bioorg Med Chem Lett, 2006).
pIC50: −log10 of the molar value.

Key:
[1] = system: P388; assay: Antitumor activity against P388 cell line at 10 umol/L by MTT method; format: functional; conditions: Mus musculus
[2] = system: P388; assay: Antitumor activity against P388 cell line at 0.1 umol/L by MTT method; format: functional; conditions: Mus musculus
[3] = system: A549; assay: Antitumor activity against A549 cell line at 10 umol/L by SRB method; format: functional; conditions: Homo sapiens
[4] = system: P388; assay: Antitumor activity against P388 cell line at 1 umol/L by MTT method; format: functional; conditions: Mus musculus
[5] = system: A549; assay: Antitumor activity against A549 cell line at 1 umol/L by SRB method; format: functional; conditions: Homo sapiens
[6] = system: A549; assay: Antitumor activity against A549 cell line at 0.1 umol/L by SRB method; format: functional; conditions: Homo sapiens
[7] = system: SGC-7901; assay: Antitumor activity against SGC7901 cell line at 0.1 umol/L by SRB method; format: functional; conditions: Homo sapiens
[8] = system: SGC-7901; assay: Antitumor activity against SGC7901 cell line at 0.01 umol/L by SRB method; format: functional; conditions: Homo sapiens
[9] = system: SGC-7901; assay: Antitumor activity against SGC7901 cell line at 1 umol/L by SRB method; format: functional; conditions: Homo sapiens
[10] = system: P388; assay: Antitumor activity against P388 cell line at 0.01 umol/L by MTT method; format: functional; conditions: Mus musculus
[11] = system: SGC-7901; assay: Antitumor activity against SGC7901 cell line at 100 umol/L by SRB method; format: functional; conditions: Homo sapiens
[12] = system: P388; assay: Antitumor activity against P388 cell line at 100 umol/L by MTT method; format: functional; conditions: Mus musculus
[13] = system: SGC-7901; assay: Antitumor activity against SGC7901 cell line at 10 umol/L by SRB method; format: functional; conditions: Homo sapiens
[14] = system: SGC-7901; assay: Antitumor activity against SGC7901 cell line at 6.25 nmol/L by SRB method; format: functional; conditions: Homo sapiens
[15] = system: SGC-7901; assay: Antitumor activity against SGC7901 cell line at 12.5 nmol/L by SRB method; format: functional; conditions: Homo sapiens
[16] = system: SGC-7901; assay: Antitumor activity against SGC7901 cell line at 25 nmol/L by SRB method; format: functional; conditions: Homo sapiens
[17] = system: SGC-7901; assay: Antitumor activity against SGC7901 cell line at 50 nmol/L by SRB method; format: functional; conditions: Homo sapiens
[18] = system: SGC-7901; assay: Antitumor activity against SGC7901 cell line by SRB method; format: functional, cell-based; conditions: Homo sapiens

pIC50 [18]	Compound	inhibition at 10 µM [1]	inhibition at 0.1 µM [2]	inhibition at 10 µM [3]	inhibition at 1 µM [4]	inhibition at 1 µM [5]	inhibition at 0.1 µM [6]	inhibition at 0.1 µM [7]	inhibition at 0.01 µM [8]	inhibition at 1 µM [9]	inhibition at 0.01 µM [10]	inhibition at 100 µM [11]	inhibition at 100 µM [12]	inhibition at 10 µM [13]	inhibition at 0.00625 µM [14]	inhibition at 0.0125 µM [15]	inhibition at 0.025 µM [16]	inhibition at 0.05 µM [17]
	C/C(=N/N=C(\S)N1CCN(c2ccccn2)CC1)c1ccc(N)cc1	30.3%	12.1%	46.8%	4.6%	0%	0%											
	S=C(N/N=C\c1ccccc1)N1CCN(c2ccccn2)CC1	7.3%	3.7%	0%	4.6%	16.4%	0.8%											
	C/C(=N/N=C(\S)Nc1ccc([N+](=O)[O-])cc1)c1cccs1	0%	3.6%		2.1%			14.5%	9.1%	8.3%	10.3%	51.7%	8.6%	35.7%				
	C/C(=N/N=C(\S)Nc1ccccc1C)c1cccs1	1.3%	5.9%		0%			0%	7.1%	5.5%	0%	73.5%	91.9%	41.6%				
	C/C(=N/N=C(\S)N1CCN(c2ccccn2)CC1)c1ccc(Cl)cc1	0%	0%	0%	0%	0%	0.8%											
	CCn1cc(C(=O)O)c(=O)c2cc(F)c(N3CCN(/C(S)=N/N=C(/C)c4ccccc4)CC3)cc21	100%	0%	63.9%	24.8%	0.8%	0%											
	C/C(=N/N=C(\S)Nc1cccc2ccccc12)c1cccs1	4.3%	0.9%		7.2%			16.5%	20%	13.5%	0%	55.9%	30.3%	24.3%				
	C/C(=N/N=C(\S)N1CCN(c2ccccn2)CC1)c1ccccc1	4.6%	0%	0.8%	0%	0%	0%											
	CCn1cc(C(=O)O)c(=O)c2cc(F)c(N3CCN(/C(S)=N/N=C\c4ccccc4)CC3)cc21	68.8%	0%	4.1%	4.6%	0.8%	0%											
	C/C(=N/N=C(\S)Nc1ccc(Cl)cc1)c1cccs1	9.9%	0%		0%			0%	0%	0%	0%	56.7%	21.6%	12.7%				
	C/C(=N/NC(=S)N1CCN(c2ccccn2)CC1)c1ccccn1	100%	13.8%	100%	12.8%	19.7%	24.6%											
	C/C(=N/N=C(\S)Nc1ccccc1)c1cccs1	1.2%	6.2%		1.6%			0%	0%	0%	8.5%	39.2%	48%	0%				
	COc1ccc(/C(C)=N\N=C(/S)N2CCN(c3ccccn3)CC2)cc1	7.3%	2.8%	0.8%	3.7%	0%	3.3%											
	CCn1cc(C(=O)O)c(=O)c2cc(F)c(N3CCN(/C(S)=N/N=C(/C)c4ccccn4)CC3)cc21	26.6%	0%	7.4%	4.6%	16.4%	0%											
	COc1ccc(N/C(S)=N/N=C(/C)c2cccs2)cc1	5.2%	3.6%		6.9%			0%	0%	0%	0%	65.1%	25.9%	29.2%				
	C/C(=N/N=C(\S)N1CCN(c2ccccn2)CC1)c1cccs1	0%	0%		15%			1.6%	12.8%	7.2%	0%	96.4%	100%	94.9%				
	C/C(=N/N=C(\S)N1CCN(c2ccccn2)CC1)c1ccc(O)cc1	53%	28.8%	0%	25.8%	0%	0%											
	C/C(=N/N=C(\S)N1CCN(c2ccccn2)CC1)c1nccs1	94.5%	73.5%	13.6%	74.3%	21.5%	15.6%	14.3%		60.8%				92.5%				
	C/C(=N/N=C(\S)N1CCN(c2ccccn2)CC1)c1ccc(C)cc1	25.8%	28.8%	0%	21.2%	0%	0%											
	C/C(=N/N=C(\S)Nc1cccc(Cl)c1)c1cccs1	6.5%	8.3%		3.7%			0%	0%	0%	0%	86.8%	51%	39.7%				
	C/C(=N/N=C(\S)Nc1ccc(C)cc1)c1cccs1	9.2%	10.8%		5.7%			9.6%	8.8%	15%	0%	67.8%	8.4%	33.9%				
	C/C(=N/N=C(\S)N1CCN(C2CCCCCC2)CC1)c1ccccn1	96.5%	39.8%	40%	41.6%	17.8%	0%											
	C/C(=N/N=C(\S)N1CCN(c2ccccn2)CC1)c1ccco1	77.3%	37.9%	72.3%	50%	0%	0%											
7.49	C/C(=N/N=C(\S)N1CCN(c2ccccn2)CC1)c1ncccn1	96.5%	28.3%	79.3%	89.4%	18.5%	12.6%	81.7%		90%				90%	18.4%	31.7%	48.4%	60.1%
	C/C(=N/N=C(\S)N1CCN(c2ccccn2)CC1)c1ccc([N+](=O)[O-])cc1	6.4%	4.6%	16.4%	4.6%	0%	0%											
	C/C(=N/N=C(\S)Nc1cc(Cl)cc(Cl)c1)c1cccs1	20.9%	17.6%		7%			0%	0%	0%	0%	72.9%	90.1%	27.9%				
